According to ChEMBL document CHEMBL4673219, “Novel 5,6-disubstituted pyrrolo[2,3-d]pyrimidine derivatives as broad spectrum antiproliferative agents: Synthesis, cell based assays, kinase profile and molecular docking study” (Bioorg Med Chem, 2018):
“And” between values parts separate entries of the source, which are not always exact repeats. Equal values may be shown once.

What was measured:
Type in all cases: functional
CCRF-CEM [1] = assay: Growth inhibition of human CCRF-CEM cells assessed as growth percentage at 100 uM incubated for 48 hrs by sulforhodamine B assay relative to control; details: read-out: Activity
MDA-MB-468 = assay: Growth inhibition of human MDA-MB-468 cells assessed as growth percentage at 1 uM incubated for 48 hrs by sulforhodamine B assay relative to control; details: read-out: Activity
M14 = assay: Growth inhibition of human M14 cells assessed as growth percentage at 10 uM incubated for 48 hrs by sulforhodamine B assay relative to control; details: read-out: Activity
RPMI-8226 [2] = assay: Growth inhibition of human RPMI-8226 cells incubated for 48 hrs by sulforhodamine B assay
HCT-15 = assay: Growth inhibition of human HCT-15 cells incubated for 48 hrs by sulforhodamine B assay; details: for TGI: HCT-15
BT-549 [3] = assay: Growth inhibition of human BT-549 cells assessed as growth percentage at 0.01 uM incubated for 48 hrs by sulforhodamine B assay relative to control; details: read-out: Activity
HOP-62 = assay: Growth inhibition of human HOP-62 cells assessed as growth percentage at 0.1 uM incubated for 48 hrs by sulforhodamine B assay relative to control; details: read-out: Activity
MCF7 = assay: Growth inhibition of human MCF7 cells incubated for 48 hrs by sulforhodamine B assay
NCI-H322M [4] = assay: Growth inhibition of human NCI-H322M cells assessed as growth percentage at 10 uM incubated for 48 hrs by sulforhodamine B assay relative to control; details: read-out: Activity
OVCAR-4 = assay: Growth inhibition of human OVCAR-4 cells assessed as growth percentage at 100 uM incubated for 48 hrs by sulforhodamine B assay relative to control; details: read-out: Activity
SK-OV-3 = assay: Growth inhibition of human SK-OV-3 cells assessed as growth percentage at 100 uM incubated for 48 hrs by sulforhodamine B assay relative to control; details: read-out: Activity
KM12 = assay: Growth inhibition of human KM12 cells assessed as growth percentage at 10 uM incubated for 48 hrs by sulforhodamine B assay relative to control; details: read-out: Activity
LOX IMVI = assay: Growth inhibition of human LOX IMVI cells assessed as growth percentage at 100 uM incubated for 48 hrs by sulforhodamine B assay relative to control; details: read-out: Activity
OVCAR-8 = assay: Growth inhibition of human OVCAR-8 cells assessed as growth percentage at 100 uM incubated for 48 hrs by sulforhodamine B assay relative to control; details: read-out: Activity
T47D [5] = assay: Growth inhibition of human T47D cells assessed as growth percentage at 10 uM incubated for 48 hrs by sulforhodamine B assay relative to control; details: read-out: Activity
NCI-H460 = assay: Growth inhibition of human NCI-H460 cells assessed as growth percentage at 1 uM incubated for 48 hrs by sulforhodamine B assay relative to control; details: read-out: Activity
HT-29 = assay: Growth inhibition of human HT-29 cells assessed as growth percentage at 0.1 uM incubated for 48 hrs by sulforhodamine B assay relative to control; details: read-out: Activity
K562 [6] = assay: Growth inhibition of human K562 cells incubated for 48 hrs by sulforhodamine B assay
SK-BR-3 = assay: Antiproliferative activity against human SK-BR-3 cells assessed as cell growth inhibition measured after 72 hrs by MTT assay
UACC-62 [7] = assay: Growth inhibition of human UACC-62 cells incubated for 48 hrs by sulforhodamine B assay
DU-145 = assay: Growth inhibition of human DU-145 cells assessed as growth percentage at 10 uM incubated for 48 hrs by sulforhodamine B assay relative to control; details: read-out: Activity
NCI-H322M [8] = assay: Growth inhibition of human NCI-H322M cells assessed as growth percentage at 0.01 uM incubated for 48 hrs by sulforhodamine B assay relative to control; details: read-out: Activity
OVCAR-3 = assay: Growth inhibition of human OVCAR-3 cells assessed as growth percentage at 10 uM incubated for 48 hrs by sulforhodamine B assay relative to control; details: read-out: Activity
SF-268 = assay: Growth inhibition of human SF-268 cells incubated for 48 hrs by sulforhodamine B assay
U-251 = assay: Growth inhibition of human U-251 cells assessed as growth percentage at 100 uM incubated for 48 hrs by sulforhodamine B assay relative to control; details: read-out: Activity
UACC-62 [9] = assay: Growth inhibition of human UACC-62 cells assessed as growth percentage at 0.01 uM incubated for 48 hrs by sulforhodamine B assay relative to control; details: read-out: Activity
COLO 205 = assay: Growth inhibition of human COLO 205 cells assessed as growth percentage at 10 uM incubated for 48 hrs by sulforhodamine B assay relative to control; details: read-out: Activity
K562 [10] = assay: Growth inhibition of human K562 cells assessed as growth percentage at 1 uM incubated for 48 hrs by sulforhodamine B assay relative to control; details: read-out: Activity
A498 [11] = assay: Growth inhibition of human A498 cells assessed as growth percentage at 0.01 uM incubated for 48 hrs by sulforhodamine B assay relative to control; details: read-out: Activity
A498 [12] = assay: Growth inhibition of human A498 cells assessed as growth percentage at 10 uM incubated for 48 hrs by sulforhodamine B assay relative to control; details: read-out: Activity
NCI-H322M [13] = assay: Growth inhibition of human NCI-H322M cells assessed as growth percentage at 1 uM incubated for 48 hrs by sulforhodamine B assay relative to control; details: read-out: Activity
OVCAR-5 = assay: Growth inhibition of human OVCAR-5 cells incubated for 48 hrs by sulforhodamine B assay
SF-539 = assay: Growth inhibition of human SF-539 cells assessed as growth percentage at 10 uM incubated for 48 hrs by sulforhodamine B assay relative to control; details: read-out: Activity
CCRF-CEM [14] = assay: Growth inhibition of human CCRF-CEM cells assessed as growth percentage at 0.1 uM incubated for 48 hrs by sulforhodamine B assay relative to control; details: read-out: Activity
T47D [15] = assay: Growth inhibition of human T47D cells assessed as growth percentage at 1 uM incubated for 48 hrs by sulforhodamine B assay relative to control; details: read-out: Activity
A498 [16] = assay: Growth inhibition of human A498 cells assessed as growth percentage at 100 uM incubated for 48 hrs by sulforhodamine B assay relative to control; details: read-out: Activity
RPMI-8226 [17] = assay: Growth inhibition of human RPMI-8226 cells assessed as growth percentage at 0.1 uM incubated for 48 hrs by sulforhodamine B assay relative to control; details: read-out: Activity
BT-549 [18] = assay: Growth inhibition of human BT-549 cells assessed as growth percentage at 1 uM incubated for 48 hrs by sulforhodamine B assay relative to control; details: read-out: Activity

SMILES: CCCCCCCC(=O)Nc1nc2[nH]c(CN3CCN(Cc4cccc(F)c4)CC3)c(CN3CCN(Cc4cccc(F)c4)CC3)c2c(=O)[nH]1
- growth at 100 µM (CCRF-CEM [1]): 8%
- growth at 1 µM (MDA-MB-468): 29%
- growth at 10 µM (M14): -91.3%
- GI50 (RPMI-8226 [2]; 48 h): 0.36 µM
- LC50 (RPMI-8226 [2]; 48 h): 100 µM and > 1 µM
- GI50 (RPMI-8226 [2]; Homo sapiens, RPMI-8226, 48 h): 0.363 µM
- GI50 (HCT-15; 48 h): 0.3 µM
- TGI (HCT-15; Homo sapiens): 1.01 µM
- GI50 (HCT-15; Homo sapiens, HCT-15, 48 h): 0.295 µM
- CC50 (HCT-15; Homo sapiens, HCT-15, read-out: LC50 (the source's name)): 3.75 µM
- growth at 0.01 µM (BT-549 [3]): 110%
- growth at 0.1 µM (HOP-62): 95%
- GI50 (MCF7; 48 h): 0.19 µM
- LC50 (MCF7; 48 h): 0.99 µM
- TGI (MCF7; 48 h): 0.43 µM
- GI50 (MCF7; Homo sapiens, MCF7, 48 h): 0.186 µM
- LC50 (MCF7; Homo sapiens, MCF7, 48 h): 0.985 µM
- TGI (MCF7; Homo sapiens, MCF7, 48 h): 0.428 µM
- growth at 10 µM (NCI-H322M [4]): -41.2%
- growth at 100 µM (OVCAR-4): -91%
- growth at 100 µM (SK-OV-3): -99%
- growth at 10 µM (KM12): -88.9%
- growth at 100 µM (LOX IMVI): -75%
- growth at 100 µM (OVCAR-8): -81%
- growth at 10 µM (T47D [5]): -84.2%
- growth at 1 µM (NCI-H460): 11%
- growth at 0.1 µM (HT-29): 104%
- GI50 (K562 [6]; 48 h): 0.21 µM
- LC50 (concentration killing 50% of cells) (K562 [6]; 48 h): > 100 µM
- TGI (K562 [6]; 48 h): 0.55 µM
- GI50 (K562 [6]; Homo sapiens, K562, 48 h): 0.205 µM
- LC50 (concentration killing 50% of cells) (K562 [6]; Homo sapiens, K562, 48 h): 100 µM
- TGI (K562 [6]; Homo sapiens, K562, 48 h): 0.545 µM
- GI50 (SK-BR-3): 3.91 µM
- GI50 (UACC-62 [7]; 48 h): 1.68 µM
- TGI (UACC-62 [7]; 48 h): 3.15 µM
- CC50 (UACC-62 [7]; 48 h, read-out: LC50 (the source's name)): 0.59 µM and 5.9 µM
- GI50 (UACC-62 [7]; Homo sapiens, UACC-62, 48 h): 1.8 µM
- TGI (UACC-62 [7]; Homo sapiens, UACC-62, 48 h): 3.42 µM
- growth at 10 µM (DU-145): -74.7%
- growth at 0.01 µM (NCI-H322M [8]): 94%
- growth at 10 µM (OVCAR-3): -95%
- GI50 (SF-268): 1.26 µM
- LC50 (SF-268): 5.73 µM
- TGI (SF-268): 2.68 µM
- growth at 100 µM (U-251): -95%
- growth at 0.01 µM (UACC-62 [9]): 97%
- growth at 10 µM (COLO 205): -90.9%
- growth at 1 µM (K562 [10]): -31%
- growth at 0.01 µM (A498 [11]): 66%
- growth at 10 µM (A498 [12]): 61.6%
- growth at 1 µM (NCI-H322M [13]): 77%
- GI50 (OVCAR-5): 2.64 µM
- TGI (OVCAR-5): 9.27 µM
- growth at 10 µM (SF-539): -96.9%
- growth at 0.1 µM (CCRF-CEM [14]): 94%
- growth at 1 µM (T47D [15]): 80%
- growth at 100 µM (A498 [16]): -98%
- growth at 0.1 µM (RPMI-8226 [17]): 97%
- growth at 1 µM (BT-549 [18]): 63%

SMILES: Nc1nc2[nH]c(CN3CCN(c4cc(Cl)cc(Cl)c4)CC3)c(CN3CCN(c4cc(Cl)cc(Cl)c4)CC3)c2c(=O)[nH]1
- growth at 100 µM (CCRF-CEM [1]): -30%
- growth at 1 µM (MDA-MB-468): 85%
- growth at 10 µM (M14): 79.7%
- TGI (RPMI-8226 [2]; Homo sapiens, RPMI-8226): 6.92 µM
- GI50 (RPMI-8226 [2]; Homo sapiens, RPMI-8226, 48 h): 2.41 µM
- TGI (HCT-15; Homo sapiens): 4.05 µM
- GI50 (HCT-15; Homo sapiens, HCT-15, 48 h): 1.93 µM
- growth at 0.01 µM (BT-549 [3]): 91%
- growth at 0.1 µM (HOP-62): 99%
- GI50 (MCF7; Homo sapiens, MCF7, 48 h): 1.58 µM
- TGI (MCF7; Homo sapiens, MCF7, 48 h): 3.43 µM
- growth at 10 µM (NCI-H322M [4]): 64.3%
- growth at 100 µM (OVCAR-4): -82%
- growth at 100 µM (SK-OV-3): -74%
- growth at 10 µM (KM12): 64.2%
- growth at 100 µM (LOX IMVI): -35%
- growth at 100 µM (OVCAR-8): -44%
- growth at 10 µM (T47D [5]): 62.9%
- growth at 1 µM (NCI-H460): 98%
- growth at 0.1 µM (HT-29): 110%
- GI50 (K562 [6]; Homo sapiens, K562, 48 h): 2.33 µM
- GI50 (SK-BR-3): 3.22 µM
- GI50 (UACC-62 [7]; Homo sapiens, UACC-62, 48 h): 1.8 µM
- TGI (UACC-62 [7]; Homo sapiens, UACC-62, 48 h): 3.42 µM
- growth at 10 µM (DU-145): 81.3%
- growth at 0.01 µM (NCI-H322M [8]): 102%
- growth at 10 µM (OVCAR-3): 89.7%
- GI50 (SF-268): 1.77 µM
- TGI (SF-268): 3.35 µM
- growth at 100 µM (U-251): -50%
- growth at 0.01 µM (UACC-62 [9]): 101%
- growth at 10 µM (COLO 205): 10.9%
- growth at 1 µM (K562 [10]): 83%
- growth at 0.01 µM (A498 [11]): 90%
- growth at 10 µM (A498 [12]): 64.4%
- growth at 1 µM (NCI-H322M [13]): 100%
- GI50 (OVCAR-5): 2.64 µM
- TGI (OVCAR-5): 9.27 µM
- growth at 10 µM (SF-539): 84.5%
- growth at 0.1 µM (CCRF-CEM [14]): 98%
- growth at 1 µM (T47D [15]): 85%
- growth at 100 µM (A498 [16]): -72%
- growth at 0.1 µM (RPMI-8226 [17]): 102%
- growth at 1 µM (BT-549 [18]): 85%
